This is an account of results in publication PMC11083775, “Synthesis, In Silico and Kinetics Evaluation of N-(β-D-glucopyranosyl)-2-arylimidazole-4(5)-carboxamides and N-(β-D-glucopyranosyl)-4(5)-arylimidazole-2-carboxamides as Glycogen Phosphorylase Inhibitors” (International Journal of Molecular Sciences, 2024).

SMILES strings stand for the structures.

One assay deals with T1, rabbit muscle glycogen phosphorylase b (rmGPb) (Oryctolagus cuniculus, UniProt P00489).
T1 sequence (P00489 1-843): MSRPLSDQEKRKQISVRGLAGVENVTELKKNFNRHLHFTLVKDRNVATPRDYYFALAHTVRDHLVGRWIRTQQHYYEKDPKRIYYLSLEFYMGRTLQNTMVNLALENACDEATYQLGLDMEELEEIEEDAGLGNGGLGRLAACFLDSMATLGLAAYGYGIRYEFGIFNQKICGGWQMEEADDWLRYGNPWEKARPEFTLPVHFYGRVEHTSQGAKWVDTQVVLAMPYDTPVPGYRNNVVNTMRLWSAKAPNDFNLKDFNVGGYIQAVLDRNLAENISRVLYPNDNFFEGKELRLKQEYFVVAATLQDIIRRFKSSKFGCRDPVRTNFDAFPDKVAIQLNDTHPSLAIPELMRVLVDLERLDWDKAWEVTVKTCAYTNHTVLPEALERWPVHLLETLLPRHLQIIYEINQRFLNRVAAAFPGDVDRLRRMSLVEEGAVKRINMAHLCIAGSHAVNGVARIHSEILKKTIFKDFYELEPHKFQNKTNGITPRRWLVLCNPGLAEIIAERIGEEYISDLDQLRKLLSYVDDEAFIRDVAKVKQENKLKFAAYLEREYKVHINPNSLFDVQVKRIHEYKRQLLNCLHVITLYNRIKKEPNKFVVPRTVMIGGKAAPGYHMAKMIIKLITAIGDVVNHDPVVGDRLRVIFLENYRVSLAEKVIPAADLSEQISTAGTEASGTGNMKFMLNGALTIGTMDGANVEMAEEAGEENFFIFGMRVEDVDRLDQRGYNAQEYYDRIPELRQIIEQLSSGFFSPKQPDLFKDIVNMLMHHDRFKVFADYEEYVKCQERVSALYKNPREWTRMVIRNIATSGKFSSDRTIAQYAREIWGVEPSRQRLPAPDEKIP
Put plainly: Kinetics of rabbit muscle GPb inhibition, assayed in the direction of glycogen synthesis. The settings on record: 10 μg/mL enzyme, glucose-1-phosphate 4–40 mM, 1% glycogen, 1 mM AMP, at least three independent experiments, ± SD, read-out: Inhibition constant (Ki). In kind it is biochemical. The procedure: Inhibitory constants (Ki) were determined for rabbit muscle glycogen phosphorylase. Enzyme activity was assayed in the direction of glycogen synthesis, as previously published. The experiments were performed using the rabbit muscle phosphorylase b (dephosphorylated, GPb) isoform. Kinetic data for the inhibition of GPb by the compounds were obtained in the presence of 10 μg/mL of the enzyme, varying the concentrations of α-D-glucose-1-phosphate (4–40 mM) and using constant concentrations (1%) of glycogen and AMP (1 mM). The enzymatic activities were presented in the form of a double reciprocal plot (Lineweaver–Burk). The plots were analysed using a non-linear data analysis program. The inhibitor constants (Ki) were determined using secondary plots, replotting the slopes from the Lineweaver–Burk plot against the inhibitor concentrations. The means of the standard errors for all calculated kinetic parameters averaged to less than 10% [40].
As a reminder, the Ki is the equilibrium dissociation constant of an inhibitor or competing ligand from its target. Turning to `O=C(N[C@@H]1O[C@H](CO)[C@@H](O)[C@H](O)[C@H]1O)c1cnc(-c2ccccc2)[nH]1` [Compound 1a, N-(β-D-Glucopyranosyl)-2-phenyl-1H-imidazole-4(5)-carboxamide], the Ki was 10.4 ± 6.2 µM.

`O=C(N[C@@H]1O[C@H](CO)[C@@H](O)[C@H](O)[C@H]1O)c1cnc(-c2cccc3ccccc23)[nH]1` [Compound 1b, N-(β-D-Glucopyranosyl)-2-(1-naphthyl)-1H-imidazole-4(5)-carboxamide]: the Ki turned out to be 16.2 ± 8.1 µM.

For the molecule `O=C(N[C@@H]1O[C@H](CO)[C@@H](O)[C@H](O)[C@H]1O)c1cnc(-c2ccc3ccccc3c2)[nH]1` [Compound 1c, N-(β-D-Glucopyranosyl)-2-(2-naphthyl)-1H-imidazole-4(5)-carboxamide], the Ki came out at 12.8 ± 3 µM.

As for `O=C(N[C@@H]1O[C@H](CO)[C@@H](O)[C@H](O)[C@H]1O)c1ncc(-c2ccccc2)[nH]1` [Compound 2a, N-(β-D-Glucopyranosyl)-4(5)-phenyl-1H-imidazole-2-carboxamide], the Ki turned out to be 67.4 ± 9.7 µM.

Take `O=C(N[C@@H]1O[C@H](CO)[C@@H](O)[C@H](O)[C@H]1O)c1ncc(-c2cccc3ccccc23)[nH]1` [Compound 2b, N-(β-D-Glucopyranosyl)-4(5)-(1-naphthyl)-1H-imidazole-2-carboxamide]: the Ki turned out to be 4.1 ± 0.8 µM.

Regarding `O=C(N[C@@H]1O[C@H](CO)[C@@H](O)[C@H](O)[C@H]1O)c1ncc(-c2ccc3ccccc3c2)[nH]1` [Compound 2c, N-(β-D-Glucopyranosyl)-4(5)-(2-naphthyl)-1H-imidazole-2-carboxamide], the Ki came out at 3.3 ± 0.1 µM.

For the next assay, the target named is T1, rabbit muscle glycogen phosphorylase b (rmGPb).
Experiment: not given
The settings on record: cited from earlier work.
In the case of `O=C(N[C@@H]1O[C@H](CO)[C@@H](O)[C@H](O)[C@H]1O)c1nc(-c2ccc3ccccc3c2)no1` [VIIIc], the Ki result is “no inh”.

For the molecule `O=C(N[C@@H]1O[C@H](CO)[C@@H](O)[C@H](O)[C@H]1O)c1noc(-c2ccc3ccccc3c2)n1` [VIIc], the Ki entry is reported as “no inh”.
